From ChEMBL document CHEMBL1201862, “PubChem BioAssay data set” (2004)
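Five compound concentrations were applied to cells in 96-well plates for 48 hours; endpoints were derived by simple linear interpolation of the resulting dose-response curve. At the GI50, growth is halved.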 Calls of active or inactive are those of the source. Cut-off read from the data, not from the text of the source: active = GI50 up to about 1.1 µM and inactive = higher.

Experiments:
Assay in all cases: DTP human tumour cell line panel, 48 h
HL-60 = tested on: HL-60
MCF7 = tested on: MCF7
786-0 = tested on: 786-0
MOLT-4 = tested on: MOLT-4
Malme-3M = tested on: Malme-3M
KM12 = tested on: KM12
HOP-62 = tested on: HOP-62
SK-MEL-5 = tested on: SK-MEL-5
SNB-19 = tested on: SNB-19
UO-31 = tested on: UO-31
SNB-75 = tested on: SNB-75
NCI-H522 = tested on: NCI-H522
BT-549 = tested on: BT-549
SK-OV-3 = tested on: SK-OV-3
Hs-578T = tested on: Hs-578T
HT-29 = tested on: HT-29
NCI-H23 = tested on: NCI-H23
TK-10 = tested on: TK-10
U-251 = tested on: U-251
MDA-MB-231 = tested on: MDA-MB-231

Structure (SMILES) | GI50 (HL-60) | GI50 (MCF7) | GI50 (786-0) | GI50 (MOLT-4) | GI50 (Malme-3M) | GI50 (KM12) | GI50 (HOP-62) | GI50 (SK-MEL-5) | GI50 (SNB-19) | GI50 (UO-31) | GI50 (SNB-75) | GI50 (NCI-H522) | GI50 (BT-549) | GI50 (SK-OV-3) | GI50 (Hs-578T) | GI50 (HT-29) | GI50 (NCI-H23) | GI50 (TK-10) | GI50 (U-251) | GI50 (MDA-MB-231)
Cc1ccc2c(c1)C(=O)C(C1OC(=O)c3ccccc31)C2 (centres undefined) | 64.7 µM (inactive) | 36.1 µM (inactive) | > 100 µM (inactive) | 92.5 µM (inactive) | > 100 µM (inactive) | > 100 µM (inactive) | > 100 µM (inactive) | 65.3 µM (inactive) | 87.3 µM (inactive) | > 100 µM (inactive) | > 100 µM (inactive) | 83.4 µM (inactive) | > 100 µM (inactive) | > 100 µM (inactive) | 69.5 µM (inactive) | 29.2 µM (inactive) | > 100 µM (inactive) | 38.5 µM (inactive) | 61 µM (inactive) | > 100 µM (inactive)
CC1(C)O[C@@H]2[C@@H]3OC(=O)C[C@@H]3[C@@H](COCc3ccccc3)[C@@H]2O1 | > 100 µM (inactive) | > 100 µM (inactive) | > 100 µM (inactive) | > 100 µM (inactive) | > 100 µM (inactive) | > 100 µM (inactive) | > 100 µM (inactive) | > 100 µM (inactive) | > 100 µM (inactive) | > 100 µM (inactive) | > 100 µM (inactive) | > 100 µM (inactive) | > 100 µM (inactive) | > 100 µM (inactive) | > 100 µM (inactive) | > 100 µM (inactive) | > 100 µM (inactive) | > 100 µM (inactive) | > 100 µM (inactive) | > 100 µM (inactive)
COc1cccc2cc(C(=O)Nc3ccccn3)c(=N)oc12 | 21.6 µM (inactive) | 19.1 µM (inactive) | 95.1 µM (inactive) | 0.501 µM (active) | 50.9 µM (inactive) | 99.3 µM (inactive) | 82.8 µM (inactive) | > 100 µM (inactive) | > 100 µM (inactive) | > 100 µM (inactive) | 59.2 µM (inactive) | 46.5 µM (inactive) | 78.2 µM (inactive) | 85.3 µM (inactive) | 55.7 µM (inactive) | > 100 µM (inactive) | 52.5 µM (inactive) | > 100 µM (inactive) | > 100 µM (inactive) | 63 µM (inactive)
Cc1ccc(/N=N\c2c(O)ccc3cc(S(=O)(=O)O)ccc23)cc1 | > 100 µM (inactive) | > 100 µM (inactive) | > 100 µM (inactive) | > 100 µM (inactive) | > 100 µM (inactive) | > 100 µM (inactive) | > 100 µM (inactive) | > 100 µM (inactive) | > 100 µM (inactive) | > 100 µM (inactive) | > 100 µM (inactive) | > 100 µM (inactive) | > 100 µM (inactive) | > 100 µM (inactive) | > 100 µM (inactive) | > 100 µM (inactive) | > 100 µM (inactive) | > 100 µM (inactive) | > 100 µM (inactive) | > 100 µM (inactive)
CCOc1ccc(/N=N/S(=O)(=O)O)cc1 | > 100 µM (inactive) | > 100 µM (inactive) | > 100 µM (inactive) |  | > 100 µM (inactive) | > 100 µM (inactive) | > 100 µM (inactive) | > 100 µM (inactive) | > 100 µM (inactive) | > 100 µM (inactive) | > 100 µM (inactive) | > 100 µM (inactive) | > 100 µM (inactive) | > 100 µM (inactive) | > 100 µM (inactive) | > 100 µM (inactive) | > 100 µM (inactive) | > 100 µM (inactive) | > 100 µM (inactive) | > 100 µM (inactive)
CSCCCNC(=O)c1csc(-c2csc(CCNC(=O)CNC(=O)CNC(=O)OC(C)(C)C)n2)n1 | > 100 µM (inactive) | > 100 µM (inactive) | > 100 µM (inactive) | > 100 µM (inactive) | > 100 µM (inactive) | > 100 µM (inactive) | > 100 µM (inactive) | > 100 µM (inactive) | > 100 µM (inactive) | > 100 µM (inactive) | 37.2 µM (inactive) | > 100 µM (inactive) | > 100 µM (inactive) | > 100 µM (inactive) | > 100 µM (inactive) | > 100 µM (inactive) | > 100 µM (inactive) | > 100 µM (inactive) | > 100 µM (inactive) | > 100 µM (inactive)
O=c1c2cc(Cl)ccc2n2nnc3ccc(NCCNCCO)c1c32 | 1.78 µM (inactive) | 2.76 µM (inactive) | 0.741 µM (active) | 0.394 µM (active) | 2.09 µM (inactive) | 1.09 µM (active) | 1.41 µM (inactive) | 1.48 µM (inactive) | 1.5 µM (inactive) | 1.17 µM (inactive) | 0.0753 µM (active) | 1.33 µM (inactive) | 1.79 µM (inactive) | 2.67 µM (inactive) | 1.78 µM (inactive) | 0.575 µM (active) | 1.36 µM (inactive) | 2.4 µM (inactive) | 0.853 µM (active) | 1.47 µM (inactive)
